Patent publication US20180311217A1, “METHODS OF TREATMENT AND COMPOSITIONS WITH XANTHINE OXIDASE INHIBITORS” (Takeda Pharmaceuticals U.S.A., Inc., priority 2013, published 2018)
Read-outs that look alike come from different tables or passages of the source.

Test: Study TMX-99-001: febuxostat plasma pharmacokinetics
Assay type: in vivo, human
Design: AUC24/Dose: unit not given here
Conditions: mean; for AUC: following AM and PM dose

Cc1nc(-c2ccc(OCC(C)C)c(C#N)c2)sc1C(=O)O [Febuxostat, 2-[3-cyano-4-(2-methylpropoxy)phenyl]-4-methylthiazole-5-carboxylic acid]
Tmax (IR 30 mg BID): 0.70 h
Tmin (IR 30 mg BID): 24.00 h
AUC24/Dose (IR 30 mg BID, AM + PM dose (60 mg)): 103.73
Cmax (IR 30 mg BID, Cmax following AM dose): 1488.00 ng/mL
Cmax/dose (IR 30 mg BID, Cmax following AM dose/AM dose (30 mg)): 49.60 ng/mL/mg
Cmin (IR 30 mg BID, terminal phase of PM dose): 59.58 ng/mL
AUC24/Dose (IR 30 mg single dose): 84.16
Cmax (IR 30 mg single dose): 1283.54 ng/mL
Cmax/dose (IR 30 mg single dose): 42.78 ng/mL/mg
Tmax (IR 30 mg single dose): 0.89 h
Tmin (IR 30 mg single dose): 16.89 h
Cmin (IR 30 mg single dose, terminal phase at or before 24 hours): 17.50 ng/mL
AUC4-24 (IR 40 mg single dose): 941.11 ng·h/mL
AUC24 (IR 40 mg single dose): 4295.13 ng·h/mL
AUC24/Dose (IR 40 mg single dose): 107.38
Cmax (IR 40 mg single dose): 1822.11 ng/mL
Cmax/dose (IR 40 mg single dose): 45.55 ng/mL/mg
Tmax (IR 40 mg single dose): 1.19 h
Tmin (IR 40 mg single dose): 21.00 h
Cmin (IR 40 mg single dose, terminal phase at or before 24 hours): 15.13 ng/mL
AUC0-4 (IR 50 mg single dose): 3116.06 ng·h/mL
AUC24 (IR 50 mg single dose): 4374.36 ng·h/mL
AUC24/Dose (IR 50 mg single dose): 87.49
Cmax (IR 50 mg single dose): 1791.71 ng/mL
Cmax/dose (IR 50 mg single dose): 35.83 ng/mL/mg
Tmax (IR 50 mg single dose): 1.14 h
Tmin (IR 50 mg single dose): 22.00 h
Cmin (IR 50 mg single dose, terminal phase at or before 24 hours): 15.98 ng/mL
AUC24 (IR 70 mg single dose): 6948.21 ng·h/mL
AUC24/Dose (IR 70 mg single dose): 99.26
Cmax (IR 70 mg single dose): 2689.91 ng/mL
Cmax/dose (IR 70 mg single dose): 38.43 ng/mL/mg
Tmax (IR 70 mg single dose): 1.10 h
Tmin (IR 70 mg single dose): 23.20 h
Cmin (IR 70 mg single dose, terminal phase at or before 24 hours): 23.81 ng/mL
AUC0-4 (IR 90 mg single dose): 6893.00 ng·h/mL
AUC24/Dose (IR 90 mg single dose): 104.36
Cmax (IR 90 mg single dose): 4061.63 ng/mL
Cmax/dose (IR 90 mg single dose): 45.13 ng/mL/mg
Tmin (IR 90 mg single dose): 24.00 h
Cmin (IR 90 mg single dose, terminal phase at or before 24 hours): 27.53 ng/mL
AUC24 (IR 120 mg single dose): 11959.93 ng·h/mL
AUC24/Dose (IR 120 mg single dose): 99.67
Cmax (IR 120 mg single dose): 5307.58 ng/mL
Cmax/dose (IR 120 mg single dose): 44.23 ng/mL/mg
Tmax (IR 120 mg single dose): 1.11 h
Tmin (IR 120 mg single dose): 24.00 h
Cmin (IR 120 mg single dose, terminal phase at or before 24 hours): 41.49 ng/mL
AUC24 (IR 160 mg single dose): 22282.12 ng·h/mL
AUC24/Dose (IR 160 mg single dose): 139.26
Cmax (IR 160 mg single dose): 8771.07 ng/mL
Cmax/dose (IR 160 mg single dose): 54.82 ng/mL/mg
Tmax (IR 160 mg single dose): 0.80 h
Tmin (IR 160 mg single dose): 22.80 h
Cmin (IR 160 mg single dose, terminal phase at or before 24 hours): 79.88 ng/mL
AUC24 (IR 180 mg single dose): 23954.54 ng·h/mL
AUC24/Dose (IR 180 mg single dose): 133.08
Cmax (IR 180 mg single dose): 8048.76 ng/mL
Cmax/dose (IR 180 mg single dose): 44.72 ng/mL/mg
Tmin (IR 180 mg single dose): 24.00 h
Cmin (IR 180 mg single dose, terminal phase at or before 24 hours): 75.73 ng/mL
AUC24 (IR 240 mg single dose): 34976.26 ng·h/mL
AUC24/Dose (IR 240 mg single dose): 145.73
Cmax (IR 240 mg single dose): 11263.03 ng/mL
Cmax/dose (IR 240 mg single dose): 46.93 ng/mL/mg
Tmax (IR 240 mg single dose): 0.94 h
Tmin (IR 240 mg single dose): 24.00 h
Cmin (IR 240 mg single dose, terminal phase at or before 24 hours): 71.30 ng/mL
MRT inf (human, plasma, oral, 30 mg, IR 30 mg BID): 18.6 h
AUC (human, plasma, oral, 30 mg, IR 30 mg BID, read-out: AUC4-24): 3980 ng·h/mL
AUC (human, plasma, oral, 30 mg, IR 30 mg BID, read-out: AUC24): 6220 ng·h/mL
partial AUC from 0 to 4 hours (human, plasma, oral, 30 mg, IR 30 mg BID, following AM dose, read-out: AUC0-4): 2240 ng·h/mL
